Test results taken from article PMC5537602, “TRPA1 channel mediates organophosphate-induced delayed neuropathy” (Cell Discovery, 2017).
Read-outs that look alike come from different tables or passages of the source.

Legend:
[1] = target: T1, hTRPA1 (Homo sapiens, UniProt O75762); assay: cell-based; format: cell-based; settings: 30 μM, calcium-free external solution
T1 construct: expressed in transfected cells; host or cells: HEK293, transient, EGFP plasmid co-transfected
Description: (§1) Human embryonic kidney 293 (HEK293) cells were cultured in DMEM containing 10% (vol/vol) heat-inactivated fetal bovine serum, 100 units ml^−1 penicillin–streptomycin and 2 mM L-glutamine at 37 °C in a humidity-controlled sterile incubator with 5% CO2. All cell culture reagents were purchased from Life Technologies. HEK293 cells were transfected transiently with the corresponding plasmids using lipofectamine 2000 (Life Technologies). Transfection efficiency was monitored by co-transfecting EGFP plasmid which codes for the enhanced green fluorescent protein. Electrophysiological recordings were performed between 24 and 36 h after transfection.
(§2) Whole-cell patch-clamp recordings in DRG neurons (small diameter, […]) and HEK293 cells were operated at room temperature (23–25 °C) using EPC-10 amplifier and Patch Master Software (HEKA). […] Currents were sampled at 10 kHz and low-pass filtered at 2.9 kHz. The internal solution was as follows (in mM): 140 CsCl, 10 HEPES, 5 EGTA, 0.1 CaCl2 and 1 MgCl2, with pH adjusted to 7.2 by CsOH and osmolarity 295–300 mOsm. The calcium-free external solution contained (in mM) 140 NaCl, 5 KCl, 0.5 EGTA, 1 MgCl2, 10 Glucose and 10 HEPES, with pH adjusted to 7.4 by NaOH and osmolarity 300–310 mOsm. The 0.5 mM EGTA was replaced by 2 mM CaCl2 for the recordings in DRG neurons. TRPA1 currents development was monitored with repetitive injections of 300 ms duration voltage ramps from −100 to +100 mV every 2 s and the holding potential was set to 0 mV for 50 ms, existing in both sides of the voltage ramp. To record inward currents in DRG neurons, we conducted voltage clamp at holding membrane potential of −70 mV. Solutions were switched using a gravity-fed continuous focal perfusion system.

[2] = tested on: mouse DRG neurons; assay: Single-cell calcium imaging (Fura-2/AM) of isolated DRG neurons; format: cell-based
Description: (§3) DRG neurons were isolated from young C57 BL/6 mice (4–5 weeks). The sections of thoracic and lumbar DRG neurons were rapidly isolated in calcium and magnesium-free PBS with low temperature conditions (ice-bath environment). The isolated tissues were cut into pieces with scissor and incubated for 30 min with 0.1% collagenase and 0.025% trypsin which were diluted by DMEM-F12 at 37 °C. After digestion, neurons were gently dissociated using Pasteur pipettes and then plated onto poly-D-lysine pre-coated glass cover slips. DRG neurons were cultured for 24 h before use.
Calcium influx signals were monitored using the ratio metric fluorescent indicator dye Fura-2/AM at room temperature (23–25 °C). Cells were incubated with 2 μM Fura-2/AM, which was generated by diluting the stock solution with normal external solution, for 30 min at 37 °C. […] The maximum excitation wave length of Fura-2/AM was changed to 340 nm from 380 nm when combined with calcium ions. Fura-2/AM was excited at 340 and 380 nm with a rapid switching monochromator obtained from TILL Photonics, and the mean fluorescence intensity ratios (F340/F380) reflected real-time changes in the concentration of intracellular free calcium ions. The external solution used in the DRG whole-cell patch-clamp recordings was also used for calcium imaging. Solutions were switched using a gravity-fed continuous focal perfusion system.

[3] = tested on: mouse DRG neurons; assay: Whole-cell patch-clamp of small-diameter DRG neurons; format: cell-based
Description: as §3, §2

[4] = tested on: mice; assay: Behavioral testing of mice (paw-licking time after intraplantar injection); format: in vivo, mouse; settings: WT mice; AITC 10 μl 5%, malathion 10 μl 30%, intraplantar
Description: The chosen mice were allowed to acclimate to the experimental environment for at least 2 h before testing. Intraplantar injection of 5% AITC and 30% malathion (10 μl) was achieved using separate injectors. Spontaneous pain evoked by the compounds was assessed by measuring the time (s) the mice spent on licking. For the HC030031 groups, 200 mg kg^−1 HC030031 was intragastrically administered, and then the test was conducted after 1 h. The testing phase was divided into two parts: 0–10 min and 11–60 min.

[5] = tested on: mice; assay: Transmission electron microscopy of local nerve fibers in mice; format: in vivo, mouse; settings: WT mice; plantar injection, 5% AITC or 30% malathion
Description: For mice, subcutaneous tissue from the site of exposure was removed and fixed by immediate immersion in ice-cold 2.5% glutaraldehyde. Subsequently, the samples were post-fixed in 1% OsO4 for 1 h, dehydrated with an ethanol series and embedded in epon resin. Sixty-nanometer ultra-thin sections were double stained with lead citrate and uranyl acetate and examined using an electron microscopy.

[6] = target: mTRPA1 (Mus musculus, UniProt Q8BLA8); assay: Whole-cell patch-clamp, HEK293 cells expressing mTRPA1; format: cell-based; parameters: expressed in transfected cells; host or cells: HEK293; settings: 30 μM, calcium-free external solution
Description: as §1, §2

[7] = tested on: hens; format: in vivo, hen
Description: The chosen adult Hyline Brown hens were raised individually in stainless steel wire cages. After 7 days of acclimatization, the chosen hens were randomly divided into groups (n=6–10 for each group). The hens in the delayed neuropathy groups were administered a single dose of 750 mg kg^−1 TOCP and repeated doses of 75 mg kg^−1 malathion by gavage. TOCP and malathion were dissolved in corn oil and administered at 0.65 ml kg^−1. In the HC030031 treatment groups, 100 mg kg^−1 HC030031 was administered by gavage daily beginning at day 0 or day 11. All hens were examined daily for signs of delayed neurotoxicity. A five-point graded scale was used to describe the clinical symptoms of delayed neuropathy, with 0 indicating normal ambulation; (1) suspected ataxia (lack of strength in the legs and tottering); (2) mild ataxia (slow, clumsy and unsteady gait); (3) gross ataxia (waddling gait and staggering and falling despite being active); (4) mild paralysis (typical paralytic posture and lame appearance); and (5) complete paralysis (unable to maintain posture, stand up or move at all), as described previously.

[8] = tested on: hens; assay: Transmission electron microscopy of hen spinal cord and sciatic nerve; format: in vivo; settings: 21 days after exposure
Description: For hens, the animals were anesthetized with sodium pentobarbital (100 mg kg^−1) and killed 21 days after exposure to TOCP and malathion. They were then perfused with normal saline followed immediately by 4% paraformaldehyde. The lumbar spinal cord at approximately the L2-L3 level and the sciatic nerve of the left leg were removed and fixed by immersion in ice-cold 2.5% glutaraldehyde. Subsequently, the samples were post-fixed in 1% OsO4 for 1 h, dehydrated with the ethanol series, and embedded in epon resin. Sixty-nanometer ultra-thin sections were double stained with lead citrate and uranyl acetate and examined with an electron microscopy.

[9] = target: T2, cTRPA1 (Gallus gallus, UniProt W8VTH6); assay: Whole-cell patch-clamp, HEK293 cells expressing cTRPA1; format: cell-based, chicken
T2 sequence (W8VTH6 1-1126): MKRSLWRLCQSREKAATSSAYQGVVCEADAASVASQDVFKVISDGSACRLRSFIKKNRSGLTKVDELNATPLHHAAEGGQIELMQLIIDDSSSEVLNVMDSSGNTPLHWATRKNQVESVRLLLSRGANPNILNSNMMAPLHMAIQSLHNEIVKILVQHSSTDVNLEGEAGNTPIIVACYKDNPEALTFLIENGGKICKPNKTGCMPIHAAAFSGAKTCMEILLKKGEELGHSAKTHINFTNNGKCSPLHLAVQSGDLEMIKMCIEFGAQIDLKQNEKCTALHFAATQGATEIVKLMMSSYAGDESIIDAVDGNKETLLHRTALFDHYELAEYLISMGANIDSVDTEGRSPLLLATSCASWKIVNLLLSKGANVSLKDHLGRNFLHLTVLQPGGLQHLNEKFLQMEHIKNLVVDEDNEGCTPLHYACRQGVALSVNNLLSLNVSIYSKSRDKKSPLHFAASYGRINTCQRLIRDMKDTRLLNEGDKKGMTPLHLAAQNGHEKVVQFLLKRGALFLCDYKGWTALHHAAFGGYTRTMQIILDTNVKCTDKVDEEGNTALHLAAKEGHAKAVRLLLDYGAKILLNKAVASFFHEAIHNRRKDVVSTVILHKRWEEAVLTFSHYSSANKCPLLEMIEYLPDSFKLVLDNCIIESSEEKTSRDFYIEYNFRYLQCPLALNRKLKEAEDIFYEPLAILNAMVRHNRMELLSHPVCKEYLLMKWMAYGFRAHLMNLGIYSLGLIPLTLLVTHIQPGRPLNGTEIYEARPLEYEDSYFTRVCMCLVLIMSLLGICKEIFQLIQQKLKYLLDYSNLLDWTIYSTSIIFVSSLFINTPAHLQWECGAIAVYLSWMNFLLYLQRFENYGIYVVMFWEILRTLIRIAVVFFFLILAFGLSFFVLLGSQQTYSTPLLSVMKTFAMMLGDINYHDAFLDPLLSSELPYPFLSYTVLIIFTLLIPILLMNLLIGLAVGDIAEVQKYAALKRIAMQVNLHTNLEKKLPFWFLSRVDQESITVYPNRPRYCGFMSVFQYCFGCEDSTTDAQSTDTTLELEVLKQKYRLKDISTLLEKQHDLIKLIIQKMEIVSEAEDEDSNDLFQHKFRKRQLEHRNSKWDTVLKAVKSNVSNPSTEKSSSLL
Description: All cell culture reagents were purchased from Life Technologies. HEK293 cells were transfected transiently with the corresponding plasmids using lipofectamine 2000 (Life Technologies). Transfection efficiency was monitored by co-transfecting EGFP plasmid which codes for the enhanced green fluorescent protein. Electrophysiological recordings were performed between 24 and 36 h after transfection.
as §2, with “The internal solution was as follows (in mM): 140 CsCl, 10 HEPES, 5 EGTA, 0.1 CaCl2 and 1 MgCl2, with pH adjusted to 7.2 by CsOH and osmolarity 295–300 mOsm.” left out

[10] = target: T3, rTRPA1 (Rattus norvegicus, UniProt Q6RI86); assay: Whole-cell patch-clamp, HEK293 cells expressing rTRPA1; format: cell-based; settings: 30 μM, calcium-free external solution
T3 construct: expressed in transfected cells; host or cells: HEK293, transient
Description: as §1, §2

[11] = tested on: hTRPA1 carrying single mutations (C414A, C421A, C621A, C641A, C665A or K710R); assay: Whole-cell patch-clamp of mutant hTRPA1 channels; format: cell-based, human; settings: 30 μM flufenamic acid
Description: as §1
Whole-cell patch-clamp recordings in DRG neurons (small diameter, […]) and HEK293 cells were operated at room temperature (23–25 °C) using EPC-10 amplifier and Patch Master Software (HEKA). […] Currents were sampled at 10 kHz and low-pass filtered at 2.9 kHz. The internal solution was as follows (in mM): 140 CsCl, 10 HEPES, 5 EGTA, 0.1 CaCl2 and 1 MgCl2, with pH adjusted to 7.2 by CsOH and osmolarity 295–300 mOsm. […] TRPA1 currents development was monitored with repetitive injections of 300 ms duration voltage ramps from −100 to +100 mV every 2 s and the holding potential was set to 0 mV for 50 ms, existing in both sides of the voltage ramp. […]

T1 sequence (O75762 whole entry): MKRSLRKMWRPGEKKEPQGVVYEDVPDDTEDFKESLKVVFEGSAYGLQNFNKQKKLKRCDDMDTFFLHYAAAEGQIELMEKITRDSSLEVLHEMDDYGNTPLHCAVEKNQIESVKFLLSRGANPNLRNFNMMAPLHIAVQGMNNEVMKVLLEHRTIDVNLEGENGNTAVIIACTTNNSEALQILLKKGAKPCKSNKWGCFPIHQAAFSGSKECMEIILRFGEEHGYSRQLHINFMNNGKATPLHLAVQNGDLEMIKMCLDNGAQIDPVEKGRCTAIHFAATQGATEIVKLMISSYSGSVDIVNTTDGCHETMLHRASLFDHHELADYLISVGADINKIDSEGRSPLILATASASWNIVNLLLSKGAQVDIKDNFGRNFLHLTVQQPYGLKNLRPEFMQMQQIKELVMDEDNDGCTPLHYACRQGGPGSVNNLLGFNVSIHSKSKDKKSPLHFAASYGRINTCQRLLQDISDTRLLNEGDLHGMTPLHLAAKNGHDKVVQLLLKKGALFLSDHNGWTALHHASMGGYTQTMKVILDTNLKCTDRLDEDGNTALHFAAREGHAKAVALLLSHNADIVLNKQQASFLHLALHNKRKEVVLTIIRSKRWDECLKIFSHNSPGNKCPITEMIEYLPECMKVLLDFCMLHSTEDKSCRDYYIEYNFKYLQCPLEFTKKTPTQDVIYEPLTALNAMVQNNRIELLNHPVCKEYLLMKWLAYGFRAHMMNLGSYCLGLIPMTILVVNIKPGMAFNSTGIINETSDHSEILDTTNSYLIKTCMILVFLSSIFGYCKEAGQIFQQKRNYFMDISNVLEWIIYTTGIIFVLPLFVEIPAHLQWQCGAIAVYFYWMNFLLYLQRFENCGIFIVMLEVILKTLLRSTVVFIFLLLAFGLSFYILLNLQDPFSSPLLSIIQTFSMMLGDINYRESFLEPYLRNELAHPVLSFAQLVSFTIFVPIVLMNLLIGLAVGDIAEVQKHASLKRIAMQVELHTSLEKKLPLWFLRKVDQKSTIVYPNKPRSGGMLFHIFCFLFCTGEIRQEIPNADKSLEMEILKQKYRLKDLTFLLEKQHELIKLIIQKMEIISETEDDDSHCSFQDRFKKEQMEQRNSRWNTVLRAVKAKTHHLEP
Sequence of mTRPA1 (Q8BLA8 whole entry): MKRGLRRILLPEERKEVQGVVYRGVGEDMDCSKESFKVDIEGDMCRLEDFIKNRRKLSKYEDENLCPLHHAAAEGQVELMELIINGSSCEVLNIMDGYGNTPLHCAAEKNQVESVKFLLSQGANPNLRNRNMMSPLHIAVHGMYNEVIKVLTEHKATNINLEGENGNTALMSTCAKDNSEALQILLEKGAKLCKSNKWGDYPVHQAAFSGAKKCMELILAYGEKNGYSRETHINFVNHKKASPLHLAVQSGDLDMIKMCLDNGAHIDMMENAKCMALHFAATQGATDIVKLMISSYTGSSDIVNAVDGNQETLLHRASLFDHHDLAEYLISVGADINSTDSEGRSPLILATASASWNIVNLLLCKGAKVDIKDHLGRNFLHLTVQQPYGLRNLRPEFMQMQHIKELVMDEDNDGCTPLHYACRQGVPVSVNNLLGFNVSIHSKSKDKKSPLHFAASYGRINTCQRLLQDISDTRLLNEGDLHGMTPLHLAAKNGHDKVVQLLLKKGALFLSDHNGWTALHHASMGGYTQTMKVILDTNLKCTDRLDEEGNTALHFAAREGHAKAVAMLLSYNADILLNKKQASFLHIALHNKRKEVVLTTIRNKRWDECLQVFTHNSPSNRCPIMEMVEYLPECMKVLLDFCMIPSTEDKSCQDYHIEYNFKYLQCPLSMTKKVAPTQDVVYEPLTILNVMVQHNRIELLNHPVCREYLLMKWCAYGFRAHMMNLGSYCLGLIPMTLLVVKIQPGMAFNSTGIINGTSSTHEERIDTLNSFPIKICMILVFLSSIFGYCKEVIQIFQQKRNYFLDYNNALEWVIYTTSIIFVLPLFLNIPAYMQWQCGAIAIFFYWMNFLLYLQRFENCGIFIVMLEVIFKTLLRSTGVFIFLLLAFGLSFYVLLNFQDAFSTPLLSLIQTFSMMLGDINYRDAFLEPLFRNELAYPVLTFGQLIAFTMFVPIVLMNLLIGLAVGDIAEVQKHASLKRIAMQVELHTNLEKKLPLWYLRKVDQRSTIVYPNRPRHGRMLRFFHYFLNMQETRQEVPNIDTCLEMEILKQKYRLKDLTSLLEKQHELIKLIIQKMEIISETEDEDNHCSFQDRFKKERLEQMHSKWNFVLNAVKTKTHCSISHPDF
T3 sequence (Q6RI86 whole entry): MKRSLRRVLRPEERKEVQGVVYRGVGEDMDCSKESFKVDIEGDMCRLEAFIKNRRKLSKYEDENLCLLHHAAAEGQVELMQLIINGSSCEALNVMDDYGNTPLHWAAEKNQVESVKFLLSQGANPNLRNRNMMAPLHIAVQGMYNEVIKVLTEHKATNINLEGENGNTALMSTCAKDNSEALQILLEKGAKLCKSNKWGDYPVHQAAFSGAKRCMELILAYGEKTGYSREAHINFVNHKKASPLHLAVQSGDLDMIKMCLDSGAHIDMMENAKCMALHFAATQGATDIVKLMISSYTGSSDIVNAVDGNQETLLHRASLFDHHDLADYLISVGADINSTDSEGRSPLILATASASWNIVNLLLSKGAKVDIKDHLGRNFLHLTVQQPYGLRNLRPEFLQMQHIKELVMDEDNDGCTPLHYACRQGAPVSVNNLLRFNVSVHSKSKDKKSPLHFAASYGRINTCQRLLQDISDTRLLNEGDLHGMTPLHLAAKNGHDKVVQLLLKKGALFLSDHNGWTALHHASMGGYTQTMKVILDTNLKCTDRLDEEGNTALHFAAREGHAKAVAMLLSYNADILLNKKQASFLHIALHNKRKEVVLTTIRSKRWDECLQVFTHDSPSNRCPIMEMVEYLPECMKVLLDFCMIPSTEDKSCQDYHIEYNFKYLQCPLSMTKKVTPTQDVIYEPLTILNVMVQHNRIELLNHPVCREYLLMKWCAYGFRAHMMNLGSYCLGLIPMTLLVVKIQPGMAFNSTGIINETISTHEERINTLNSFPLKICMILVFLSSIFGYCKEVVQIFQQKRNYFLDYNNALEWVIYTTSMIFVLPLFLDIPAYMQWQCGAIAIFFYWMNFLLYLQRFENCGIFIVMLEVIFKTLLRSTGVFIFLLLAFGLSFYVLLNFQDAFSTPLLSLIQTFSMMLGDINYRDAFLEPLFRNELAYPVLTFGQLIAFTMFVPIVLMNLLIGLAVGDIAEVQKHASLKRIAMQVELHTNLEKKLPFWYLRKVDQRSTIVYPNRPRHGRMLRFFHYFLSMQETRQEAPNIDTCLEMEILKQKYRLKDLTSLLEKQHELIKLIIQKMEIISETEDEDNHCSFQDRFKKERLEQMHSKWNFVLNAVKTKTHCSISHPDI

C=CCN=C=S [AITC, allyl isothiocyanate]
activation of hTRPA1 whole-cell currents [1]: activated | [Ca2+]i response of DRG neurons from Trpa1−/− mice ([2]; Trpa1−/− neurons): thoroughly unresponsive | neurons displaying a robust increase in [Ca2+]i ([2]; wild-type small-diameter neurons, sequential application of AITC and malathion, 197/451): ~ 44% | action potential firing in WT small-diameter neurons ([3]; 100 μM): bursts of action potentials | currents in neurons from Trpa1−/− mice ([3]; Trpa1−/− neurons, 17/17): failed to induce currents | nocifensive behavior (paw-licking) after plantar injection [4]: nociception-like response | nerve fiber damage around the injection site (TEM) [5]: damage of the myelin sheath

Cc1ccccc1OP(=O)(Oc1ccccc1C)Oc1ccccc1C [TOCP, tri-ortho-cresyl phosphate]
activation of hTRPA1 whole-cell currents [1]: effectively activate | activation of mTRPA1 whole-cell currents [6]: effectively activate | clinical symptoms of delayed neuropathy ([7]; hens, TOCP single dose 750 mg kg−1, end of the 21-day period): completely paralyzed | damage of spinal cord and sciatic nerve (TEM) [8]: severely damaged the spinal cord and sciatic nerve | EC50 [9]: 15.8 ± 1.37 µM | activation of cTRPA1 whole-cell currents ([9]; calcium-free external solution): effectively activate | activation of rTRPA1 whole-cell currents [10]: effectively activate

CNCC[C@H](Oc1cccc2ccccc12)c1cccs1 [duloxetine]
effect on TOCP-induced symptoms (OPIDN scores) ([7]; in vivo): significantly alleviated | IC50 ([9]; manual whole-cell patch-clamp, TOCP-induced currents, read-out: IC50 on cTRPA1 channels): 4.69 ± 1.4 µM

O=C(O)c1ccccc1Nc1cccc(C(F)(F)F)c1 [flufenamic acid]
role of the mutated residues (except C414) for activation of TRPA1 [11]: not essential

CN1CCC(=C2c3ccccc3CC(=O)c3sccc32)CC1 [ketotifen]
effect on TOCP-induced symptoms (OPIDN scores) ([7]; hens, 100 mg kg−1 daily by gavage from day 0): significantly alleviated | IC50 [9]: 5.79 ± 1.18 µM
